The results in this text go back to article PMC5761851, “Application of a phenotypic drug discovery strategy to identify biological and chemical starting points for inhibition of TSLP production in lung epithelial cells” (PLoS ONE, 2018).

Holding throughout (experiment): kinase selectivity panel
Holding throughout (type): biochemical

One experiment addresses T1, JNK2α2 (Homo sapiens, UniProt P45984).
T1 construct: purchased Eurofins Pharma Discovery Services (KinaseProfiler; Cerep BioPrint panel)
As to conditions: read-out: percentage of control activity (POC), JNK2α2. The essentials: (§1)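 First, 125 representative kinases were exposed to 10 μM compound in duplicate; next, selected activities were titrated over 9 concentrations in duplicate, and IC50 values were calculated.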

The target in another experiment is T2, Axl (Homo sapiens, UniProt P30530).
T2 construct: purchased Eurofins Pharma Discovery Services (KinaseProfiler; Cerep BioPrint panel)
T2 sequence (P30530 26-894): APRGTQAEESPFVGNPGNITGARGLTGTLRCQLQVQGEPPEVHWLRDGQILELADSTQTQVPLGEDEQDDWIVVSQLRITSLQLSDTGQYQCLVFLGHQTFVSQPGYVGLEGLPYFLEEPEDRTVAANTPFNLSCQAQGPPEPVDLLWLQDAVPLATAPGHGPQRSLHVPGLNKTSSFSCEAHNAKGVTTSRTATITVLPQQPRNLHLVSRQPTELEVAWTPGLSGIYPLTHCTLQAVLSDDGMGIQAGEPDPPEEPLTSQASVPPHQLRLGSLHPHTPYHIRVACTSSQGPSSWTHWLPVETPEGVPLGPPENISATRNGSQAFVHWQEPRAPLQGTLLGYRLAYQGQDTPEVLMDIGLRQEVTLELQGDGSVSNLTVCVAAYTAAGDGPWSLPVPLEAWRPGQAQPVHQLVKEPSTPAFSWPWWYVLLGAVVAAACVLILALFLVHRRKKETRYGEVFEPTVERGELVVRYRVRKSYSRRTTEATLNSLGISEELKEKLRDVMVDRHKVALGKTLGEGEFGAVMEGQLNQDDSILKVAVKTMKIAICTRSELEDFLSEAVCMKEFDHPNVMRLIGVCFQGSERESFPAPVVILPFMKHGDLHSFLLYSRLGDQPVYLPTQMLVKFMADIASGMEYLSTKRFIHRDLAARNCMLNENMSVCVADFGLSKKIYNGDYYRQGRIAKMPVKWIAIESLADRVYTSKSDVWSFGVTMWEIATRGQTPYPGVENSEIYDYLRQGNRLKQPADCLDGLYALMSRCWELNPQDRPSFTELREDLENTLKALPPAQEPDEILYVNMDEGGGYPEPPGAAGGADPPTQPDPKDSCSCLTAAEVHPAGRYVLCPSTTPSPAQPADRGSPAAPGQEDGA
As to conditions: read-out: percentage of control activity (POC), Axl. An outline of the steps:
as §1

In another experiment the target is T3, IRAK4 (Homo sapiens, UniProt Q9NWZ3).
T3 construct: purchased Eurofins Pharma Discovery Services (KinaseProfiler; Cerep BioPrint panel)
T3 sequence (Q9NWZ3 1-460): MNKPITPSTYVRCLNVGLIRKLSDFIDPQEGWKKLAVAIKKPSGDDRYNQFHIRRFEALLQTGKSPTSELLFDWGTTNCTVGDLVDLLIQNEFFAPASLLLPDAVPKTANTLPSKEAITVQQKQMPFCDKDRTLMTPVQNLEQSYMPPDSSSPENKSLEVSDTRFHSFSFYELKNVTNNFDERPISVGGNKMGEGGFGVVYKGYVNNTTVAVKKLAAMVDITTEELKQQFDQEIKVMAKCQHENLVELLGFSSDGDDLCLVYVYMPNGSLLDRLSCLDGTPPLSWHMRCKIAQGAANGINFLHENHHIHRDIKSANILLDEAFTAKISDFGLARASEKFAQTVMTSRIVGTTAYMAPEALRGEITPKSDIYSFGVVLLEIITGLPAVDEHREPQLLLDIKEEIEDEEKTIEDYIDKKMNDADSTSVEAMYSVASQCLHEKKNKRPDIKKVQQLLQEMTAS
The settings on record: read-out: percentage of control activity (POC), IRAK4. An outline of the steps: as §1

Another experiment concerns the target T4, EGFR (Homo sapiens, UniProt P00533).
T4 construct: purchased Eurofins Pharma Discovery Services (KinaseProfiler; Cerep BioPrint panel)
The settings on record: read-out: percentage of control activity (POC), EGFR. The essentials:
as §1

The next experiment concerns the target T5, Lyn (Homo sapiens, UniProt P07948).
T5 construct: purchased Eurofins Pharma Discovery Services (KinaseProfiler; Cerep BioPrint panel)
The settings on record: read-out: percentage of control activity (POC), Lyn. The essentials: as §1

The next experiment deals with T6, IKKε (Homo sapiens, UniProt Q14164).
T6 construct: purchased Eurofins Pharma Discovery Services (KinaseProfiler; Cerep BioPrint panel)
T6 sequence (Q14164 1-716): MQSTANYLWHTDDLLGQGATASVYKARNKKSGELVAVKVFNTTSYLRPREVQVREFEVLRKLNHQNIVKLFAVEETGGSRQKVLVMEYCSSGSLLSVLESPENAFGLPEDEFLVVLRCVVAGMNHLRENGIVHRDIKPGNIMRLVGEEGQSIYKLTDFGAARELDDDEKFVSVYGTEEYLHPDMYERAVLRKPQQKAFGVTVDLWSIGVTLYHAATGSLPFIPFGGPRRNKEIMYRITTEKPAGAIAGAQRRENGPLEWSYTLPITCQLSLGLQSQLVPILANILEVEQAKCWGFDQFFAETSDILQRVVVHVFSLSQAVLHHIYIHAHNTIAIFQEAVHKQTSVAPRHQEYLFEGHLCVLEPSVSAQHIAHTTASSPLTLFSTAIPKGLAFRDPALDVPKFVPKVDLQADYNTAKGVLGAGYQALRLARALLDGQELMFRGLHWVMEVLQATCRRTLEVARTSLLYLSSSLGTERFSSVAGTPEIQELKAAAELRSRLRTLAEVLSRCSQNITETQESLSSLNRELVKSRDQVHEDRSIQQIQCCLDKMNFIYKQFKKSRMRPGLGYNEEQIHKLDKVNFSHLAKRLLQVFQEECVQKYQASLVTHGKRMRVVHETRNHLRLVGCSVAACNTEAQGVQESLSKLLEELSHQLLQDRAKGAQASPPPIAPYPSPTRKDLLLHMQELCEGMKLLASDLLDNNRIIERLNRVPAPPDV
The settings on record: read-out: percentage of control activity (POC), IKKε. The essentials:
as §1

A further experiment concerns the target T7, PI3K (p110a/p85a) (Homo sapiens, UniProt P42336).
T7 construct: purchased Eurofins Pharma Discovery Services (KinaseProfiler; Cerep BioPrint panel)
The settings on record: read-out: percentage of control activity (POC), PI3K (p110a/p85a). The essentials: as §1

The next experiment concerns the target T8, PAK2 (Homo sapiens, UniProt Q13177).
T8 construct: purchased Eurofins Pharma Discovery Services (KinaseProfiler; Cerep BioPrint panel)
The settings on record: read-out: percentage of control activity (POC), PAK2. The essentials:
as §1

The target of a further experiment is T9, Fyn (Homo sapiens, UniProt P06241).
T9 construct: purchased Eurofins Pharma Discovery Services (KinaseProfiler; Cerep BioPrint panel)
T9 sequence (P06241 whole entry): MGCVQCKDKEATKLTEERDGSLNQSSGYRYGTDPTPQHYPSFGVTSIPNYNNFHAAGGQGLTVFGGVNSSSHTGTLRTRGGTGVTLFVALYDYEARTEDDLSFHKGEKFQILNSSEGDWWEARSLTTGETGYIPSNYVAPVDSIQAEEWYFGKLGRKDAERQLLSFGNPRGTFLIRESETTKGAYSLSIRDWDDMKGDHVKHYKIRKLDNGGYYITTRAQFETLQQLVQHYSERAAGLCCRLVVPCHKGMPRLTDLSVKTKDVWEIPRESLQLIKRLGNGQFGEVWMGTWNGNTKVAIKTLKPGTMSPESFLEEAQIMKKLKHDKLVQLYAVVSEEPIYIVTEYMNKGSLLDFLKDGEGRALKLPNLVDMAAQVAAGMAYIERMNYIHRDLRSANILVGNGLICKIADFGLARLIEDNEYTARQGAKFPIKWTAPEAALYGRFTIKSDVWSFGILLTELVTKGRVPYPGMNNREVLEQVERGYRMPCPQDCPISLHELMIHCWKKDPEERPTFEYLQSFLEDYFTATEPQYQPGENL
The settings on record: read-out: percentage of control activity (POC), Fyn. The essentials:
as §1

The next experiment has as its target T10, MINK (Homo sapiens, UniProt Q8N4C8).
T10 construct: purchased Eurofins Pharma Discovery Services (KinaseProfiler; Cerep BioPrint panel)
The settings on record: read-out: percentage of control activity (POC), MINK. An outline of the steps:
as §1

The target of another experiment is T11, Fgr (Homo sapiens, UniProt P09769).
T11 construct: purchased Eurofins Pharma Discovery Services (KinaseProfiler; Cerep BioPrint panel)
T11 sequence (P09769 whole entry): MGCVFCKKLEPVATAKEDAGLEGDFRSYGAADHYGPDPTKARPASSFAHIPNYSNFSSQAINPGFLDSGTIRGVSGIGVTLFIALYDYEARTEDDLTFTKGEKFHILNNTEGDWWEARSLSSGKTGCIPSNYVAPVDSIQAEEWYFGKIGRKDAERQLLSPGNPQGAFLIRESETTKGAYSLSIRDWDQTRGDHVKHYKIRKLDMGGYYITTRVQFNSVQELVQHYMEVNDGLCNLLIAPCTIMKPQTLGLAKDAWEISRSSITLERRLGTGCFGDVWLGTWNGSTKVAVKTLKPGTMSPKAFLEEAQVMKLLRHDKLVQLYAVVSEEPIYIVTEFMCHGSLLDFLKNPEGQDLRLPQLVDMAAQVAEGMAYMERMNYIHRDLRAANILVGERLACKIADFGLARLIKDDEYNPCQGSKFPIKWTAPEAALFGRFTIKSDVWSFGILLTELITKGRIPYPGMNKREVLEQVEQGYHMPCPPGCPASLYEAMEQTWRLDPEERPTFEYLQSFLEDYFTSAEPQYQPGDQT
As to conditions: read-out: percentage of control activity (POC), Fgr. The essentials: as §1

T1 sequence (P45984 whole entry): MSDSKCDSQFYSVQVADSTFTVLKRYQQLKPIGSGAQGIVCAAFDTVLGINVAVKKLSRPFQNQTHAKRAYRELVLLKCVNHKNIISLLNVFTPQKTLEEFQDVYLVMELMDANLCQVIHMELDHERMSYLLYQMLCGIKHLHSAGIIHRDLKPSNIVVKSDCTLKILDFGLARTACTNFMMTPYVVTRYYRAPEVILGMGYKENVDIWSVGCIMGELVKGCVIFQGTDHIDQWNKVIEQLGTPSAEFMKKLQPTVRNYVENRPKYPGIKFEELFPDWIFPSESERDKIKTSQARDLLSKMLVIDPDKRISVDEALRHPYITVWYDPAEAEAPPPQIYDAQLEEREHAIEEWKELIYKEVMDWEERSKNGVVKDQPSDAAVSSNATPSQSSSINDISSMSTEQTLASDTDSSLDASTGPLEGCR
T4 sequence (P00533 25-1210): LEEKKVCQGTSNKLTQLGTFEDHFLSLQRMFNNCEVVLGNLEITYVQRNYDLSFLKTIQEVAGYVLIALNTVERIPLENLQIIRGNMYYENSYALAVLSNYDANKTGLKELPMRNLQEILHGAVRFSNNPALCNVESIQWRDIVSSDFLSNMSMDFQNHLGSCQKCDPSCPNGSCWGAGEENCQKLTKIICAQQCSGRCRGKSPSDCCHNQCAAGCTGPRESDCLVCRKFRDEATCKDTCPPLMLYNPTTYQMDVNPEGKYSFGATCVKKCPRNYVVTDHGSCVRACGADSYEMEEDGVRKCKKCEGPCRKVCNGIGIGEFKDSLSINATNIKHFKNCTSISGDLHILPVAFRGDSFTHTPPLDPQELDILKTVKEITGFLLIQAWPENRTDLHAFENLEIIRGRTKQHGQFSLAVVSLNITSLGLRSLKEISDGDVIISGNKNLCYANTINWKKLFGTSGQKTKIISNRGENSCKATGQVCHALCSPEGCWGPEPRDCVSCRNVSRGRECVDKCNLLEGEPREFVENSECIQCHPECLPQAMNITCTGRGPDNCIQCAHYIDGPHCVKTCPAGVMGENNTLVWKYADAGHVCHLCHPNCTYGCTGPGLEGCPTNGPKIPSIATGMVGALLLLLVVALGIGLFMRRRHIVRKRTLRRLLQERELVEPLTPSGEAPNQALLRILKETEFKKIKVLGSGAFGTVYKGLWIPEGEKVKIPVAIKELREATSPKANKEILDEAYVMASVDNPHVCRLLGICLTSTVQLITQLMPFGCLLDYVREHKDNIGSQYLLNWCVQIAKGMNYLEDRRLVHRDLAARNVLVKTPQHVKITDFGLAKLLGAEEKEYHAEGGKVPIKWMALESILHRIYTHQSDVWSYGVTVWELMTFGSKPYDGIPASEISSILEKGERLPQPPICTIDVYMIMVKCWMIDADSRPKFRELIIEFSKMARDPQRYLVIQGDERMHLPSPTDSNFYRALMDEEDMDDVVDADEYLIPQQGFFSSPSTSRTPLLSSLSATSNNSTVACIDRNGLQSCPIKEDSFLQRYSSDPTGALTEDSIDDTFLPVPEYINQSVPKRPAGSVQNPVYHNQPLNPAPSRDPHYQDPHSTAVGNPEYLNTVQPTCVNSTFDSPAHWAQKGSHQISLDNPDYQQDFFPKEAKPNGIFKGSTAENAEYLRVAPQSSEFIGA
T10 sequence (Q8N4C8 whole entry): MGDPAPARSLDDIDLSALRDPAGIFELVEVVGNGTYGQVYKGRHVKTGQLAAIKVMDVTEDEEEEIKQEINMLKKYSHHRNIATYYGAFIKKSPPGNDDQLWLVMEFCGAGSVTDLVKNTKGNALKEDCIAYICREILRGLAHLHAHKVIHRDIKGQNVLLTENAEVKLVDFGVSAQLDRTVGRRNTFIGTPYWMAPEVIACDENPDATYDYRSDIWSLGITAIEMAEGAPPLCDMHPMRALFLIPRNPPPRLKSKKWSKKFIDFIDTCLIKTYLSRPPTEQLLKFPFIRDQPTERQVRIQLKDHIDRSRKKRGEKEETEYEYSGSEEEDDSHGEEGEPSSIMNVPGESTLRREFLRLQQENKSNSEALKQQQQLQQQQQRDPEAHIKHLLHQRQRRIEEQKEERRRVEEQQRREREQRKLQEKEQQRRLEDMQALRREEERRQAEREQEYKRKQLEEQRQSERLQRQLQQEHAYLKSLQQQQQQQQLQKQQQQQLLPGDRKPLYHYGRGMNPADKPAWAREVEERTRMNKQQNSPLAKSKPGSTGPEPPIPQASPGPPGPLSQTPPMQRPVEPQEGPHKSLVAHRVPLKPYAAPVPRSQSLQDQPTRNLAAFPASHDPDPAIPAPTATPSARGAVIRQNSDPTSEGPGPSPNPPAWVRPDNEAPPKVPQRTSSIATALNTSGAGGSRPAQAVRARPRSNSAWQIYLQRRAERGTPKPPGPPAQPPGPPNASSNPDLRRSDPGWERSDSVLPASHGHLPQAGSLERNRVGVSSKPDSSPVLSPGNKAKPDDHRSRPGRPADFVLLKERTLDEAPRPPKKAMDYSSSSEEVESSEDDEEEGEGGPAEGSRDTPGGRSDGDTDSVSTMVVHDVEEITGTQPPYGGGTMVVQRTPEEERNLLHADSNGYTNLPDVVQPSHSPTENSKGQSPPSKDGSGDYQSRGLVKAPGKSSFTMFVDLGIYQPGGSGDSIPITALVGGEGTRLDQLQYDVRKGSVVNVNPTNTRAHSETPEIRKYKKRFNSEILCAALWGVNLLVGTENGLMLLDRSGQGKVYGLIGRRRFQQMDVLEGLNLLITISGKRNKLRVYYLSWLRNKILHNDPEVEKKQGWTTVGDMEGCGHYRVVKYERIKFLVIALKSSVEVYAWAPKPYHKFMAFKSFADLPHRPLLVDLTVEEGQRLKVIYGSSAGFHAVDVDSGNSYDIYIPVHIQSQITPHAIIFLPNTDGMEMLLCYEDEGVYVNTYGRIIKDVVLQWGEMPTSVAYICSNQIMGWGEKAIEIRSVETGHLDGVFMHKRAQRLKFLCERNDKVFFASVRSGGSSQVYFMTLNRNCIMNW
T5 sequence (P07948 whole entry): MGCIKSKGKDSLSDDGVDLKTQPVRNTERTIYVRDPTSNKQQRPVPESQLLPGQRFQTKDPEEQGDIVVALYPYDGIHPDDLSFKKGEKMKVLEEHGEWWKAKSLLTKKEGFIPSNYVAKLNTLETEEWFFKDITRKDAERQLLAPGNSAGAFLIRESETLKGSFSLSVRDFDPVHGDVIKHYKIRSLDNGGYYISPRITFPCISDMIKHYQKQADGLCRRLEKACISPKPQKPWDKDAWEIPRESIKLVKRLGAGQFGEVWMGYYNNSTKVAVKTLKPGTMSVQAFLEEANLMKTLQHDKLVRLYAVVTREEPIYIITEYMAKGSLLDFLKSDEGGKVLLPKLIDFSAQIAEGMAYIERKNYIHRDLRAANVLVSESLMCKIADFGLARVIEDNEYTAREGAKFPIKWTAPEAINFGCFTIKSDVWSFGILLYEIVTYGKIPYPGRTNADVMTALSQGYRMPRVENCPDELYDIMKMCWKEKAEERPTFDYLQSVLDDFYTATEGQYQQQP
T8 sequence (Q13177 whole entry): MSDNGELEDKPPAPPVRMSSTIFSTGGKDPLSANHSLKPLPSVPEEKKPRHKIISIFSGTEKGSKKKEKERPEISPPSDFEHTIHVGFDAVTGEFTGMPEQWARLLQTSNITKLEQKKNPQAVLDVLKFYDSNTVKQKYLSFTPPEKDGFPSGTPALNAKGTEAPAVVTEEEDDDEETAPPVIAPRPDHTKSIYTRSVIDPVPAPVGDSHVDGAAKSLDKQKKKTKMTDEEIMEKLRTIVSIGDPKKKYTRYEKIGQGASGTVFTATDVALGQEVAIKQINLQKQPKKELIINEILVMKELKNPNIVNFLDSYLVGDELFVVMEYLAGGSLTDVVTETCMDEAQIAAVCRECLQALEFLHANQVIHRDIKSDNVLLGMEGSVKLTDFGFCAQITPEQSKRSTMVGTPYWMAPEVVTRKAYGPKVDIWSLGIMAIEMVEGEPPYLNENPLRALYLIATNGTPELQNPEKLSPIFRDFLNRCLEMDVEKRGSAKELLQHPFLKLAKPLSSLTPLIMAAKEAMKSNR

For the molecule `CC(C)(C)N1CCC(c2cc(-c3ccc(F)cc3Cl)c3cc[n+]([O-])c(-c4c(Cl)cccc4Cl)c3n2)CC1` [compound 2], the remaining activity at 10 µM at JNK2α2 was 101%; at Axl it was 98%; at IRAK4, 95%; on EGFR it was 96%; at Lyn, 104%; on IKKε, 101%. In addition, the remaining activity at 10 µM at PI3K (p110a/p85a) came out at 97%; on PAK2, 111%; at Fyn it was 100%; at MINK, 104%; at Fgr, 99%.

For the molecule `Cc1ccc(C(=O)NCC2CC2)cc1-c1ccc2c(c1)NC(=O)C21CCCC1` [compound 3], the remaining activity at 10 µM turned out to be 94% at JNK2α2; 88% at Axl; 92% on IRAK4; 91% on EGFR; 101% at Lyn; 102% at IKKε. Besides, the remaining activity at 10 µM on PI3K (p110a/p85a) came to 94%; on PAK2, 89%; on Fyn, 97%; at MINK it was 93%; at Fgr, 93%.

As for `Cn1cc(-c2cccc(-c3nc(C(=O)NC4C5CC6CC4CC(O)(C6)C5)c(N)nc3N)c2)cn1` (stereo not shown) [compound 4], the remaining activity at 10 µM was 98% on JNK2α2; 59% at Axl; 82% on IRAK4; 95% on EGFR; 66% on Lyn; 96% at IKKε. The remaining activity at 10 µM on PI3K (p110a/p85a) is 60%; on PAK2 it was 87%; on Fyn it was 81%; on MINK, 94%; on Fgr, 67%.

With `CS(=O)(=O)N1CCN(c2ccc(Nc3ncc(C(N)=O)c(NC4CC4)n3)cc2)CC1` [compound 5], the remaining activity at 10 µM at JNK2α2 amounted to 8%; on Axl it was 12%; on IRAK4 it was 13%; at EGFR, 87%; at Lyn it was 5%; on IKKε, 0%. The remaining activity at 10 µM on PI3K (p110a/p85a) was 96%; at PAK2 it was 24%; at Fyn, 10%; on MINK, 14%; on Fgr, 5%.

In the case of `COc1c(NC(=O)c2ccc(C)c(-c3nnc4c(NCC(C)(C)C)nccn34)c2)cc(C(C)(C)C)cc1NS(C)(=O)=O` [compound 7, reference compound], the remaining activity at 10 µM turned out to be 91% on JNK2α2; 91% at Axl; 118% on IRAK4; 104% at EGFR; 66% at Lyn; 100% at IKKε. Besides, the remaining activity at 10 µM at PI3K (p110a/p85a) is 95%; on PAK2, 96%; on Fyn, 99%; on MINK it was 110%; on Fgr, 98%.
